The test system of data set [1] is Candida albicans ATCC 10231. The data set is described as follows: Antimicrobial microdilution / modified Richards method. It is filed as cell-based. The settings on record: ATCC10231; Candida albicans 10231; according to the EUCAST examination; read-out: MIC (reference agent).
In another data set the test system is AGS cell line. The data set is described as follows: Microscopic observation of cell and nucleus morphology, Hoechst 33342. It is filed as cell-based, human. The settings on record: positive control, 1 µM. The protocol:
Morphological changes and DNA fragmentation were examined with an Olympus IX53 inverted fluorescence microscope after staining with Hoechst 33342 according to the manufacturer’s recommendations Thermo Scientific (Waltham, MA, USA). Briefly, cells were seeded in 12-well plates with a density of 1 × 10^5 cell/mL. After overnight incubation, the test substance was added in a half-maximal inhibitory (IC50) concentration and incubated for 24, 48, and 72 h. Before microscopic observation, both adherent and floating cells were collected, centrifuged, resuspended in PBS containing 1 µg/mL Hoechst 33342 dye. After 10 min incubation in the dark, the morphology of cells and DNA were visualized using a contrast phase and a UV filter.

The subject of data set [2] is Enterococcus faecalis ATCC 29212. As to the kind of experiment: Antimicrobial microdilution / modified Richards method. It is filed as cell-based. (Broth dilution looks for growth in wells or tubes with falling amounts of substance.)
In data set [3] the test system is Streptococcus pneumoniae ATCC 49619. The data set is described as above. Type of data set: cell-based. The settings on record: ATCC49619; Streptococcus pneumoniae 49619; according to the EUCAST examination; read-out: MIC (reference agent).
The subject of data set [4] is Staphylococcus aureus ATCC 43300. The data set is described as above. It is filed as cell-based. The settings on record: ATCC43300; Staphylococcus aureus 43300; according to the EUCAST examination; read-out: MIC (reference agent).
The subject of data set [5] is Klebsiella pneumoniae ATCC 13883. The data set is described as above. The settings on record: ATCC13883; Klebsiella pneumoniae 13883; according to the EUCAST examination; read-out: MIC (reference agent). Type of data set: cell-based.
Data set [6] deals with Pseudomonas aeruginosa ATCC 27853. Described as above. Type of data set: cell-based. The settings on record: ATCC27853; Pseudomonas aeruginosa 27853; according to the EUCAST examination; read-out: MIC (reference agent).
The test system of the next data set is L-929 cell line. As to the kind of experiment: Neutral red uptake assay, L-929 cell line (primary screening). It is filed as cell-based, mouse. The settings on record: normal cell line L-929. The protocol:
L-929 (mouse C3H/An connective tissue), Caco-2 (human colon adenocarcinoma), A172 (human glioblastoma), AGS (human gastric adenocarcinoma), HepaRG (human hepatoma cell), and HeLa (human cervix epithelioid carcinoma) cell lines were obtained from the European Collection of Authenticated Cell Cultures (ECACC) and provided by Sigma Aldrich/Merck (Munich, Germany). All cell lines were cultured in complete mediums prepared according to the ECACC recommendations and incubated in a humidified atmosphere with 5% CO2 at 37 °C. Neutral red uptake assay was performed according to the protocol. 24 h before treatment cells were seeded in 96-well plates in 1 × 10^5 cell/mL of complete medium. After incubation and attachment of cells, the medium was discarded, and test substances dissolved in the fresh medium were added to wells. Samples were tested after 24, 48, and 72 h incubation. A neutral red working solution (40 µg/mL) was prepared and incubated overnight. Immediately before use, it was centrifuged to remove any dye crystals. The medium from wells was aspirated, and 100 µL of neutral red was added to plates and incubated for at least 2 h in 37 °C and 5% CO2 in a humidified atmosphere. To inspect the absorption of neutral red to the lysosomes, microscope visualizations were performed. After incubation, cells were washed with PBS, and destain solution containing ethanol, deionized water, and glacial acetic acid (50:49:1) was added. Plates were shaken rapidly on a horizontal shaker at 37 °C. Absorption was measured using a Thermo Scientific™ (Waltham, MA, USA) Multiskan™ GO microplate spectrophotometer at 540 nm. The negative control was a medium with 1% DMSO, and the positive control was 1 µM staurosporine. Viability was calculated according to the following formula:(1) % Viability=ODtest substance−ODblind/ODnegative control−ODblind×100 Neutral red uptake assay was performed in quadruple (n = 4). Results were calculated to mean ± standard deviation (SD) using Microsoft Office Excel 2007. The viability in negative control was compared to 100%. Statistical analyses were performed using the GraphPad Prism 8.3 for Windows (GraphPad Software, La Jolla, CA, USA, www.graphpad.com). For IC50 results, non-linear regression analyses were performed, and a sigmoidal dose-response curve (variable slope) was fitted. Differences between groups and control were tested using an ANOVA test followed by Dunnett’s post hoc analysis. The significance was set at p ≤ 0.05.

For a further data set, the system named is HepaRG. The data set is described as follows: Neutral red uptake assay, HepaRG. Type of data set: cell-based. The settings on record: Homo sapiens, 72 h exposure. Here is the method: (§1) L-929 (mouse C3H/An connective tissue), Caco-2 (human colon adenocarcinoma), A172 (human glioblastoma), AGS (human gastric adenocarcinoma), HepaRG (human hepatoma cell), and HeLa (human cervix epithelioid carcinoma) cell lines were obtained from the European Collection of Authenticated Cell Cultures (ECACC) and provided by Sigma Aldrich/Merck (Munich, Germany). All cell lines were cultured in complete mediums prepared according to the ECACC recommendations and incubated in a humidified atmosphere with 5% CO2 at 37 °C. Neutral red uptake assay was performed according to the protocol. 24 h before treatment cells were seeded in 96-well plates in 1 × 10^5 cell/mL of complete medium. After incubation and attachment of cells, the medium was discarded, and test substances dissolved in the fresh medium were added to wells. Samples were tested after 24, 48, and 72 h incubation. A neutral red working solution (40 µg/mL) was prepared and incubated overnight. […] Absorption was measured using a Thermo Scientific™ (Waltham, MA, USA) Multiskan™ GO microplate spectrophotometer at 540 nm. […] Viability was calculated according to the following formula:(1) % Viability=ODtest substance−ODblind/ODnegative control−ODblind×100 Neutral red uptake assay was performed in quadruple (n = 4). Results were calculated to mean ± standard deviation (SD) using Microsoft Office Excel 2007. […]

Data set [7] has as its system other cell lines (Caco-2, A172, HeLa, AGS). As to the kind of experiment: Neutral red uptake assay, other neoplastic cell lines. Type of data set: cell-based, human. The settings on record: cell lines other than HepaRG; viability decreased at 100–1000 µM; 72 h exposure. The protocol:
as §1

Data set [8] deals with Escherichia coli ATCC 25922. As to the kind of experiment: Antimicrobial microdilution / modified Richards method. It is filed as cell-based. The settings on record: ATCC25922; Escherichia coli 25922; according to the EUCAST examination; read-out: MIC (reference agent).
[9] abbreviates: Enterococcus faecalis ATCC 29212, range tested 1024 to 1 ug/mL.

≈ marks a conversion by molar mass, not a printed value. Where two headings read alike, the source gives them in different places.

A word on the melting point: it is the temperature of the solid-liquid transition. Consider `Cc1nc(-c2ccccc2)nc(Nc2ccc(F)cc2)c1C=O` [Compound 4, 4-(4-fluoroanilino)-6-methyl-2-phenylpyrimidine-5-carbaldehyde], for which the melting point came out at 184 °C.

In general, MIC refers to the least concentration at which growth counts as inhibited. Consider `C[C@@H]1[C@H](O)[C@@H](C)/C=C/C=C/C=C/C=C/C=C/C=C/C=C/[C@H](O[C@@H]2O[C@H](C)[C@@H](O)[C@H](N)[C@@H]2O)C[C@@H]2O[C@](O)(C[C@@H](O)C[C@@H](O)[C@H](O)CC[C@@H](O)C[C@@H](O)CC(=O)O[C@H]1C)C[C@H](O)[C@H]2C(=O)O` [amphotericin B], for which, in data set [1], the MIC is 1 µg/mL (≈ 1.08 µM).

`CN[C@@H]1C[C@H]2O[C@@](C)([C@@H]1OC)n1c3ccccc3c3c4c(c5c6ccccc6n2c5c31)C(=O)NC4` [staurosporine, reference compound]: the “cell and nucleus morphology” value with AGS cell line is “Shrunken cells’ bodies and fragmented DNA”.

On to `C[C@H]1COc2c(N3CCN(C)CC3)c(F)cc3c(=O)c(C(=O)O)cn1c23` [levofloxacin], for which the MIC is 4 µg/mL (≈ 11.1 µM) in data set [2] (Enterococcus faecalis, ATCC29212, Enterococcus faecalis 29212, according to the EUCAST examination, read-out: MIC (reference agent)); 1 ng/mL (≈ 0.00277 µM) in data set [3]; 1 µg/mL (≈ 2.77 µM) in data set [4]; 0.5 µg/mL (≈ 1.38 µM) in data set [5]; 1 µg/mL (≈ 2.77 µM) in data set [6].

What is called IC50 is the point on the concentration scale where inhibition reaches its midpoint. A low value points to greater potency. The MBC is the smallest concentration meeting the test's criterion for killing. In turn, `CCOc1ccc(NCc2c(C)nc(-c3ccccc3)nc2Nc2ccc(F)cc2)cc1` [Compound 2, 5-[(4-ethoxyanilino)methyl]-N-(4-fluorophenyl)-6-methyl-2-phenylpyrimidin-4-amine] returned a melting point of 163 to 164 °C. For the same compound, in the data set with L-929 cell line, the “effect on L-929 survival” value is “did not significantly affect L-929 survival”. In addition, in the data set with HepaRG, the IC50 stood at 404 µM. In addition, the IC50 result in data set [7] is reported as “IC50 was not reached”. In data set [2] (setting [9]), this compound yielded an MBC of 1024 µg/mL (≈ 2390 µM) and an MIC of 512 µg/mL (≈ 1190 µM). Moreover, the MBC in data set [2] (Enterococcus faecalis, ATCC29212, Enterococcus faecalis ATCC 29212, range tested 1024 to 1 ug/mL, read-out: MBC) was 512 µg/mL (≈ 1190 µM). Moreover, the MIC in data set [2] (Enterococcus faecalis, ATCC29212, Enterococcus faecalis ATCC 29212, range tested 1024 to 1 ug/mL, read-out: MIC) turned out to be 1020 µg/mL (≈ 2390 µM).

As for `CNC(C)C1CCC(N)C(OC2C(N)CC(N)C(OC3OCC(C)(O)C(NC)C3O)C2O)O1` (centres unmarked) [gentamicin], the MIC in [8] turned out to be 2 µg/mL (≈ 4.19 µM).

For the origin of these results see article PMC8071423, “A New Pyrimidine Schiff Base with Selective Activities against Enterococcus faecalis and Gastric Adenocarcinoma” (Molecules, 2021).
